In experiment [1] the target is T1, IKZF1 (Ikaros) (Homo sapiens, UniProt Q13422).
T1 construct: mScarlet (behind P2A) (C, cleaved yes); expressed in transfected cells
The experiment is described as follows: IKZF1 reporter degradation assay (HEK 293T IKZF1-mNeonGreen reporter cell line). It is filed as cell-based. The conditions noted are these: 24 hours incubation. The source says: Polycistronic plasmids were constructed for the mammalian expression of fluorescent reporter fusions of human transcription factors IKZF1 (Ikaros), IKZF2 (Helios), and IKZF3 (Aiolos). The respective protein sequences had their C-terminal end joined to a GGGGS linker repeated three times followed by mNeonGreen, P2A sequence, and mScarlet. The DNA sequences of the open reading frames are as follows:
IKZF1, IKZF2, and IKZF3 constructs were cloned into the UCOE Hygromycin expression vectors (Millipore Sigma). Reporter constructs were transfected using cationic lipid reagents into adherent HEK 293T cells and stable integrants were selected by treatment with 200 μg/mL hygromycin B. Clonal populations were obtained from the population of stable integrants either by limiting dilution or fluorescence activated cell sorting.
The clonal stable cell lines were maintained under constant 200 μg/mL hygromycin B selection while being passaged for use in the degradation assays. […] The fluorescence intensity of the IKZF1/2/3-mNeonGreen (FITC channel) and mScarlet (PE channel) reporters were routinely analyzed by flow cytometry to confirm consistent expression levels between experiments.
The IKZF1/IKZF2/IKZF3 degradation assays were carried out by harvesting the HEK 293T reporter cell lines and resuspending the cells in media formulated for reduced background fluorescence (FluoroBrite; Thermo Fisher). The respective cell lines were seeded at a density of 4000 cells/well into black-walled 384-well optical grade assay tissue culture plates. The cells were incubated overnight at 37° C. to allow for attachment to the assay plate. Dilutions of the compounds were prepared in DMSO from 10 mM compound stocks. The assay plates were treated with appropriate concentrations of the compounds by dispensing the DMSO dilutions in quadruplicate wells with an upper limit of 0.5% final DMSO.
After 24 hours incubation with the compounds, the assay plates were imaged on an ImageXpress Pico microscopy system (cells maintained at 37° C. during imaging) to obtain the fluorescent readouts. The assay plates were imaged in the FITC and Tetramethylrhodamine (TRITC) channels to obtain the mNeonGreen fluorescence intensity (reporter degradation data) and mScarlet fluorescence intensity (for cell segmentation). 293T-IKZF1 and 293T-IKZF3 reporter cell lines were imaged with exposures of 500 milliseconds (ms) for both FITC and TRITC channels, while the 293T-IKZF2 reporter cell line was imaged with exposures of 1000 ms for FITC and 1250 ms for TRITC. The resulting data was analyzed with Cell Reporter Xpress software using the 2-channel cell scoring analysis with a “percent positive” readout. The TRITC channel was selected for the “nuclei” segmentation with a threshold of 20 while the FITC channel was selected for the “Marker 1” segmentation and a threshold of 100 for the IKZF1 and IKZF3 reporter lines. […] The minimum segmentation width was set to 6 micrometers and the maximum segmentation width was set to 15 micrometers for all cell lines. The DC50 calculations were determined by regression to best fit four-parameter logistic curves using GraphPad Prism.

The target of experiment [2] is T2, IKZF2 (Helios) (Homo sapiens, UniProt Q96SW2+Q9UKS7).
T2 construct: Leu-Asp junction (codons ctcgac before the linker); mScarlet (behind P2A) (C, cleaved yes); expressed in transfected cells
The experiment is described as follows: IKZF2 reporter degradation assay (HEK 293T IKZF2-mNeonGreen reporter cell line). It is filed as cell-based. As to conditions: HEK-293T, 24 h, 1 μM compound, HEK 293T IKZF2 reporter cells, 24 hours incubation. Put shortly:
(§1)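 HEK 293T, stable IKZF1/2/3-mNeonGreen + P2A-mScarlet; cpd 24 h, 37 °C, max 0.5% DMSO, n=4 wells; FITC/TRITC imaging, % positive; DC50 by 4PL fit.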

For experiment [3], the target named is T3, IKZF2 (Helios) (Homo sapiens, UniProt Q9UKS7).
T3 construct: Leu-Asp junction (codons ctcgac before the linker); mScarlet (behind P2A) (C, cleaved yes); expressed in transfected cells
Described as above. Type of experiment: cell-based. The conditions noted are these: 24 hours incubation. The essentials:
as §1

Experiment [4] addresses T4, IKZF3 (Aiolos) (Homo sapiens, UniProt Q9UKT9).
T4 construct: Leu-Asp junction (codons ctcgac before the linker); mScarlet (behind P2A) (C, cleaved yes); expressed in transfected cells
The experiment is described as follows: IKZF3 reporter degradation assay (HEK 293T IKZF3-mNeonGreen reporter cell line). Type of experiment: cell-based. As to conditions: 24 hours incubation. The essentials: as §1

In experiment [5] the target is T5, human E3 ligase component cereblon (CRBN) (Homo sapiens, UniProt Q96SW2).
T5 construct: host or cells: HEK293T
The experiment is described as follows: Cereblon (CRBN) target engagement, NanoBRET TE Intracellular E3 Ligase Assay in transfected HEK-293T cells. The conditions noted are these: read-out: CRBN Binding EC50. Put shortly: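 HEK-293T cells transiently co-transfected with NanoLuc-CRBN (N-terminal NanoLuc) and DDB1 were dosed with CRBN tracer and an 11-point compound series (typically 10 μM to 100 pM) for 2 h at 37° C. BRET at 450/610 nm gave IC50 by four-parameter logistic fit.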
(In general: In BRET a luciferase serves as donor, and the signal depends on an acceptor being close.)

Where [6] appears, read: HEK 293T IKZF1-mNeonGreen reporter.
[7] abbreviates: HEK 293T IKZF2-mNeonGreen reporter.
The mark [8] stands for this setting: HEK 293T IKZF3-mNeonGreen reporter.

SMILES strings stand for the structures.

T4 sequence (Q96SW2 whole entry partner): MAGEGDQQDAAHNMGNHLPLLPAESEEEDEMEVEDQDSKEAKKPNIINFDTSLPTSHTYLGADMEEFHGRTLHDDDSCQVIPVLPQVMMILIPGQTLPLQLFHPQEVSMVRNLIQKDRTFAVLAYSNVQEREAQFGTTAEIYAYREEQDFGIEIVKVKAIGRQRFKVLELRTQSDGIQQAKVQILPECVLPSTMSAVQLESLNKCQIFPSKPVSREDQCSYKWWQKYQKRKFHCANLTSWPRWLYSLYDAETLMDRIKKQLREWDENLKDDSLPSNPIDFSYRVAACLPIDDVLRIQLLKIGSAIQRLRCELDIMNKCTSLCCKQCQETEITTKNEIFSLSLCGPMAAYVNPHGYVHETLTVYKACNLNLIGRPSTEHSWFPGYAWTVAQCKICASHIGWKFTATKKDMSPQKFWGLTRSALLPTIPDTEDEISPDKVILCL
T4 sequence (Q16531 whole entry partner): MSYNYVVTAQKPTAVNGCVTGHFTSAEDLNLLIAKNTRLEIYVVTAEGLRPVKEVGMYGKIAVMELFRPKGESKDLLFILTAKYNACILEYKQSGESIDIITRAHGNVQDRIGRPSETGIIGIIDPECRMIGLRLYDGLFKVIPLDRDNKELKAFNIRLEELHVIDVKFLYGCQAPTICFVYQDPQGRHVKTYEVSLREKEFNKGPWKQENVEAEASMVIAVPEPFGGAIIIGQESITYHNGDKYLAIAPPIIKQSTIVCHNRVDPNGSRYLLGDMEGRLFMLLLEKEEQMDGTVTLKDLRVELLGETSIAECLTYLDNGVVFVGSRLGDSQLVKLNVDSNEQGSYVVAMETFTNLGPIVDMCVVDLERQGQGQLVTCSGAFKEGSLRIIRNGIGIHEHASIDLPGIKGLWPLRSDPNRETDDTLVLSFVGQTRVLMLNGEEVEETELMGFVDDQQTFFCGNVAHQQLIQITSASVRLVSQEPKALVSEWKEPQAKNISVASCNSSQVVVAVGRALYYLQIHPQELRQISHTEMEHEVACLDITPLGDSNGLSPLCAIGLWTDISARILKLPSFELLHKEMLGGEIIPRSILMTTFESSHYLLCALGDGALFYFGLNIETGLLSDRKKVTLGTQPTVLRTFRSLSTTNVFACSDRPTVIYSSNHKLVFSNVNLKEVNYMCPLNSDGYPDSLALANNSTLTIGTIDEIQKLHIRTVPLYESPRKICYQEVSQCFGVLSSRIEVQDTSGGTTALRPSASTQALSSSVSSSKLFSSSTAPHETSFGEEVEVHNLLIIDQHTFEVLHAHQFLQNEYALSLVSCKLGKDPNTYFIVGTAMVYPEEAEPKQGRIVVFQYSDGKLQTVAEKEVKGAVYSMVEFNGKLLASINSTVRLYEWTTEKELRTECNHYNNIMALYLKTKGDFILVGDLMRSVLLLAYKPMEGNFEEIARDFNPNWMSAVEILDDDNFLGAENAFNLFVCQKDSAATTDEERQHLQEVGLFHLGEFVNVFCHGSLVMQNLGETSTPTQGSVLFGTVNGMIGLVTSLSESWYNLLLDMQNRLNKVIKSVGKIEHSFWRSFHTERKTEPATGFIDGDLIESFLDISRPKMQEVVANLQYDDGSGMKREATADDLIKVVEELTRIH
T4 sequence (Q9UKT9 whole entry): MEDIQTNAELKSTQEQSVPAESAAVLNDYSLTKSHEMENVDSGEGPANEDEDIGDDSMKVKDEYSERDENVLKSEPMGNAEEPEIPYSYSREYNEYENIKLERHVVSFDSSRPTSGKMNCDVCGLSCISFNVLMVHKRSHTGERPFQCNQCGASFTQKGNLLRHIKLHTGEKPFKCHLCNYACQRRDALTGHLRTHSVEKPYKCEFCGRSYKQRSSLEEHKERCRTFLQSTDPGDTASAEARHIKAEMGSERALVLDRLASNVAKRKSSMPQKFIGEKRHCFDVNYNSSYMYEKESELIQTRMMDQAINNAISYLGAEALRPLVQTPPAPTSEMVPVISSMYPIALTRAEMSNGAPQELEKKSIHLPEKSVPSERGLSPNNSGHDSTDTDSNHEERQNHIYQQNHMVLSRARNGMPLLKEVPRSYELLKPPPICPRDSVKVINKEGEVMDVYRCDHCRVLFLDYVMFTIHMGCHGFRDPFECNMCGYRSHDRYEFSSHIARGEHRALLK
T5 sequence (Q96SW2 whole entry): as the sequence (Q96SW2 whole entry partner) above
T5 sequence (Q16531 whole entry partner): as the sequence (Q16531 whole entry partner) above
T1 sequence (Q96SW2 whole entry partner): as the sequence (Q96SW2 whole entry partner) above
T1 sequence (Q16531 whole entry partner): as the sequence (Q16531 whole entry partner) above
T1 sequence (Q13422 whole entry): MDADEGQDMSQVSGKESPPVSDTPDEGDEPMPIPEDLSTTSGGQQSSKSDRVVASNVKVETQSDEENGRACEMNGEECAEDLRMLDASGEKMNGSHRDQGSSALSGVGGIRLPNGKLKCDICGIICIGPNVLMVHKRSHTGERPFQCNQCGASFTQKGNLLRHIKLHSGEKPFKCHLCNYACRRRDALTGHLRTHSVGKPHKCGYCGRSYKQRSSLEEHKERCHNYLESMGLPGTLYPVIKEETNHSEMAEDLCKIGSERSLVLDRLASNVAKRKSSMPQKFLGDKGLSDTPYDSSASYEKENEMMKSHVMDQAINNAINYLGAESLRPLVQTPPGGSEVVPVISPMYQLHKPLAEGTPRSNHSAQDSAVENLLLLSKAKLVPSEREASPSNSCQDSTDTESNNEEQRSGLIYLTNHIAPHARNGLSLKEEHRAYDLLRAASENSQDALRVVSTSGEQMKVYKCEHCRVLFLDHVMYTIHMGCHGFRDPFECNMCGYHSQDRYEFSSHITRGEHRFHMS
T3 sequence (Q9UKS7 whole entry): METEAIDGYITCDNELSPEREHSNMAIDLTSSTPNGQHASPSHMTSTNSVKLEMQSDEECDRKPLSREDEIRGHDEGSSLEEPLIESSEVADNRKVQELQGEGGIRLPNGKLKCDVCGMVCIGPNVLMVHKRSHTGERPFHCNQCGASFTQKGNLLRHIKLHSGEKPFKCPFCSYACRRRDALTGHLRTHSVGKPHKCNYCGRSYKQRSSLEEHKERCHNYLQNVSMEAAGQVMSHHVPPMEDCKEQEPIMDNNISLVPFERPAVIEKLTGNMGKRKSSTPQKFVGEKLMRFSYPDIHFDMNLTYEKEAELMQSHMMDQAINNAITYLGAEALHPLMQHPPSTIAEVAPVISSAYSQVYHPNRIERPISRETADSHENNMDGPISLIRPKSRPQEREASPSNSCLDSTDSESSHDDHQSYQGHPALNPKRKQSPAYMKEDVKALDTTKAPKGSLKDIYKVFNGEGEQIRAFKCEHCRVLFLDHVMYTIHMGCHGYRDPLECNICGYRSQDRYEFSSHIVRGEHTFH
T3 sequence (Q96SW2 whole entry, further chain): as the sequence (Q96SW2 whole entry partner) above
T3 sequence (Q16531 whole entry partner): as the sequence (Q16531 whole entry partner) above
T2 sequence (Q9UKS7 whole entry): as the sequence (Q9UKS7 whole entry) above
T2 sequence (Q96SW2 whole entry): as the sequence (Q96SW2 whole entry partner) above
T2 sequence (Q16531 whole entry partner): as the sequence (Q16531 whole entry partner) above

For orientation: DC50 means the midpoint of the concentration-degradation curve. In general, inhibition refers to the share of the control response that was lost under treatment. A lower inhibition goes with a weak effect. `Cc1cc(C2CN(C3CCCCC3Oc3ccc4c(c3)CN(C3CCC(=O)NC3=O)C4=O)C2)ccn1` (stereo not drawn) [Compound 56-B, 3-(5-((2-(3-(2-methylpyridin-4-yl)azetidin-1-yl)cyclohexyl)oxy)-1-oxoisoindolin-2-yl)piperidine-2,6-dione]: the DC50 in experiment [1] (HEK 293T IKZF1 reporter cells) was above 30 µM; in experiment [3] (HEK 293T IKZF2 reporter cells), 0.0111 µM; in experiment [4] (HEK 293T IKZF3 reporter cells) it was above 30 µM. The inhibition at 1 µM in experiment [2] was 84.8%.

For `COc1ncc(C2CN(C3CCCCC3Oc3ccc4c(c3)CN(C3CCC(=O)NC3=O)C4=O)C2)cn1` (stereo not drawn) [Compound 76-B, 3-(5-((2-(3-(2-methoxypyrimidin-5-yl)azetidin-1-yl)cyclohexyl)oxy)-1-oxoisoindolin-2-yl)piperidine-2,6-dione], the values for the DC50 in experiment [1] (HEK 293T IKZF1 reporter cells), in experiment [3] (HEK 293T IKZF2 reporter cells) and in experiment [4] (HEK 293T IKZF3 reporter cells) were above 30 µM, 0.0286 µM and above 30 µM, respectively. The inhibition at 1 µM in experiment [2] stood at 84.6%.

As for `O=C1CCC(N2Cc3cc(OC4CCCCC4N4CC(c5ccnc6ccccc56)C4)ccc3C2=O)C(=O)N1` (stereo not drawn) [Compound 66-B, 3-(1-oxo-5-((2-(3-(quinolin-4-yl)azetidin-1-yl)cyclohexyl)oxy)isoindolin-2-yl)piperidine-2,6-dione], the DC50 in experiment [1] (HEK 293T IKZF1 reporter cells) was above 30 µM; in experiment [3] (HEK 293T IKZF2 reporter cells), 0.0132 µM; in experiment [4] (HEK 293T IKZF3 reporter cells), above 30 µM. The molecule further had an inhibition at 1 µM in experiment [2] of 86.4%.

One may read the EC50 as the concentration giving half of the maximal effect. As to `O=C1CCC(N2Cc3cc(OC4CCC[C@@H]4N4CC(c5cccnc5)C4)ccc3C2=O)C(=O)N1` (mixture of isomers) [Compound 208-B, Rac-3-(1-oxo-5-(((trans)-2-(3-(pyridin-3-yl)azetidin-1-yl)cyclopentyl)oxy)isoindolin-2-yl)piperidine-2,6-dione], the EC50 in experiment [5] amounted to 0.076 µM. In addition, the DC50 in experiment [1] (setting [6]), in experiment [3] (setting [7]) and in experiment [4] (setting [8]) was above 30 µM throughout.

Consider `O=C1CCC(N2Cc3cc(OC4CCCC4N4CC(c5ncc(Cl)cn5)C4)ccc3C2=O)C(=O)N1` (stereo not drawn) [Compound 200-B, 3-(5-((2-(3-(5-chloropyrimidin-2-yl)azetidin-1-yl)cyclopentyl)oxy)-1-oxoisoindolin-2-yl)piperidine-2,6-dione], for which the EC50 in experiment [5] came to 0.02 µM. Moreover, the DC50 in experiment [1] (setting [6]), in experiment [3] (setting [7]) and in experiment [4] (setting [8]) was above 30 µM throughout.

For `O=C1CCC(N2Cc3cc(O[C@H]4CCCC[C@@H]4N4CC(c5cncc(Cl)c5)C4)ccc3C2=O)C(=O)N1` (mixture of isomers) [Compound 168-B, Rac-3-(5-(((trans)-2-(3-(5-chloropyridin-3-yl)azetidin-1-yl)cyclohexyl)oxy)-1-oxoisoindolin-2-yl)piperidine-2,6-dione], in experiment [5], the EC50 was determined as 0.048 µM. Besides, the DC50 in experiment [1] (setting [6]), in experiment [3] (setting [7]) and in experiment [4] (setting [8]) was above 30 µM in each case.

As to `O=C1CCC(N2Cc3cc(O[C@H]4CCCC[C@@H]4N4CC(c5cc(Cl)ccn5)C4)ccc3C2=O)C(=O)N1` (mixture of isomers) [Compound 166-B, Rac-3-(5-(((trans)-2-(3-(4-chloropyridin-2-yl)azetidin-1-yl)cyclohexyl)oxy)-1-oxoisoindolin-2-yl)piperidine-2,6-dione], the EC50 in experiment [5] worked out at 0.031 µM. Moreover, the DC50 in experiment [1] (setting [6]), in experiment [3] (setting [7]) and in experiment [4] (setting [8]) was above 30 µM throughout.

Regarding `O=C1CCC(N2Cc3cc(O[C@H]4CCCC4N4CC(c5ccnc6ccccc56)C4)ccc3C2=O)C(=O)N1` (mixture of isomers) [Compound 195-B, Rac-3-(1-oxo-5-(((trans)-2-(3-(quinolin-4-yl)azetidin-1-yl)cyclopentyl)oxy)isoindolin-2-yl)piperidine-2,6-dione], in experiment [5], the EC50 was 0.024 µM. Moreover, the DC50 in experiment [1] (setting [6]), in experiment [3] (setting [7]) and in experiment [4] (setting [8]) was above 30 µM each time.

`O=C1CCC(N2Cc3cc(O[C@H]4CCCC[C@@H]4N4CC(n5ccnc5)C4)ccc3C2=O)C(=O)N1` (stereo partly drawn) [Compound 176-B, 3-(5-(((1S,2S)-2-(3-(1H-imidazol-1-yl)azetidin-1-yl)cyclohexyl)oxy)-1-oxoisoindolin-2-yl)piperidine-2,6-dione]: the EC50 in experiment [5] came out at 0.899 µM. Besides, the values for the DC50 in experiment [1] (setting [6]), in experiment [3] (setting [7]) and in experiment [4] (setting [8]) were above 30 µM, 2.1 µM and above 30 µM, respectively.

Take `O=C1NC(=O)C2(N3Cc4cc(O[C@@H]5CCCC[C@@H]5N5CC(c6ncc(Cl)cn6)C5)ccc4C3=O)CC1C2` (racemic) [Compound 171-B, Rac-1-(5-(((cis)-2-(3-(5-chloropyrimidin-2-yl)azetidin-1-yl)cyclohexyl)oxy)-1-oxoisoindolin-2-yl)-3-azabicyclo[3.1.1]heptane-2,4-dione]: in experiment [5], the EC50 is above 10 µM. Moreover, the DC50 in experiment [1] (setting [6]) is at least 30 µM; in experiment [3] (setting [7]), above 30 µM; in experiment [4] (setting [8]), above 30 µM.

Take `Cc1cnc(C2CN([C@H]3CCCC[C@@H]3Oc3ccc4c(c3)CN(C3CCC(=O)NC3=O)C4=O)C2)o1` (mixture of isomers) [Compound 175-B, Rac-3-(5-(((trans)-2-(3-(5-methyloxazol-2-yl)azetidin-1-yl)cyclohexyl)oxy)-1-oxoisoindolin-2-yl)piperidine-2,6-dione]: in experiment [5], the EC50 was 0.022 µM. Moreover, the DC50 in experiment [1] (setting [6]), in experiment [3] (setting [7]) and in experiment [4] (setting [8]) was above 30 µM each time.

For the molecule `O=C1CCC(N2Cc3cc(OC4CCC[C@@H]4N4CC(c5ccncc5)C4)ccc3C2=O)C(=O)N1` (mixture of isomers) [Compound 206-B, Rac-3-(1-oxo-5-(((trans)-2-(3-(pyridin-4-yl)azetidin-1-yl)cyclopentyl)oxy)isoindolin-2-yl)piperidine-2,6-dione], the EC50 in experiment [5] was found to be 0.071 µM. Besides, the DC50 in experiment [1] (setting [6]), in experiment [3] (setting [7]) and in experiment [4] (setting [8]) was above 30 µM in each case.

Regarding `COc1ccc(C2CN([C@H]3CCCC3Oc3ccc4c(c3)CN(C3CCC(=O)NC3=O)C4=O)C2)cn1` (mixture of isomers) [Compound 202-B, Rac-3-(5-(((trans)-2-(3-(6-methoxypyridin-3-yl)azetidin-1-yl)cyclopentyl)oxy)-1-oxoisoindolin-2-yl)piperidine-2,6-dione], the EC50 in experiment [5] came to 0.029 µM. The DC50 in experiment [1] (setting [6]), in experiment [3] (setting [7]) and in experiment [4] (setting [8]) was above 30 µM in each case.

Take `O=C1NC(=O)C2(N3Cc4cc(O[C@H]5CCCC[C@@H]5N5CC(c6ncc(Cl)cn6)C5)ccc4C3=O)CC1C2` (racemic) [Compound 172-B, Rac-1-(5-(((trans)-2-(3-(5-chloropyrimidin-2-yl)azetidin-1-yl)cyclohexyl)oxy)-1-oxoisoindolin-2-yl)-3-azabicyclo[3.1.1]heptane-2,4-dione]: in experiment [5], the 50% effective concentration (EC50) was above 10 µM. The half-maximal degradation concentration (DC50) in experiment [1] (setting [6]), in experiment [3] (setting [7]) and in experiment [4] (setting [8]) was above 30 µM each time.

Take `O=C1CCC(N2Cc3cc(O[C@H]4CCCC[C@@H]4N4CC(c5ccc(C(F)(F)F)nc5)C4)ccc3C2=O)C(=O)N1` (mixture of isomers) [Compound 191-B, Rac-3-(1-oxo-5-(((trans)-2-(3-(6-(trifluoromethyl)pyridin-3-yl)azetidin-1-yl)cyclohexyl)oxy)isoindolin-2-yl)piperidine-2,6-dione]: the EC50 in experiment [5] worked out at 0.031 µM. The DC50 in experiment [1] (setting [6]), in experiment [3] (setting [7]) and in experiment [4] (setting [8]) was above 30 µM in each case.

For the origin of these results see patent US20250100996A1, “HETEROCYCLOALKYL AND HETEROARYL COMPOUNDS AND PHARMACEUTICAL COMPOSITIONS THAT MODULATE IKZF2” (Plexium, Inc., priority 2021, published 2025).
